Experimental data as given in patent publication US20230014181A1, “CULTURE SYSTEM AND METHODS FOR IMPROVED MODELING OF NEUROLOGICAL CONDITIONS” (Genentech, Inc., priority 2021, published 2023).
Like-named read-outs stand apart in the source and are kept apart here.

How the values were obtained:
[1] = tested on: human iPSC neurons and astrocytes treated with 5 μM sAβ42s; test: Focused small molecule screen, double culture (neuron, astrocyte), rescue from sAβ42s toxicity, high content imaging; type: cell-based; settings: Homo sapiens, iPSC, 50 μM compound, double culture, 5 μM sAβ42s
Description: (§1) FIGS. 11A-11D show synapse % rescue versus MAP2% rescue (FIGS. 11A-11B) and beta III tubulin % rescue versus MAP2% rescue (FIGS. 11C-11D), in neurons and astrocytes (FIGS. 11A and 11C) or neurons, astrocytes, and microglia (FIGS. 11B and 11D) treated with 5 μM sAβ42s and small molecules from a focused screen of known neuroprotective agents at multiple concentrations (50 μM, 25 μM, 12.5 μM and 6.25 μM (double culture), 50 μM, 12.5 μM, 3.1 μM and 0.78 μM (triple culture). Small molecules that prevented toxicity in dendrites (MAP2), synapses (Synapsin 1/2), cell count (CUX2), or axons ([…]) at or above 30% were considered hits (red dotted line).
Neurons from both NSC lines were evaluated by immunofluorescence staining. Briefly, cells were fixed with 4% PFA and 4% sucrose at room temperature for 20 minutes using Bravo automation. Fixed cells were then washed 2 times with PBS using Biotek 406 microplate washer (Beckman Coulter), followed by permeabilization and blocking by incubation with a solution containing 1×PBS, 0.1% Triton X-100, 2% donkey serum, and 1% BSA at room temperature for 30 minutes. Blocking solution was removed and cells were incubated with primary antibodies in blocking solution overnight at 4° C. After washing 6 times with PBS on Biotek 406 cell plate washer (Beckman Coulter), cells were then incubated with fluorophore-conjugated secondary antibodies for 1 hour at room temperature in the dark to avoid photobleaching. Cells were then washed 6 more times in with PBS before imaging. Fluorescent images were captured using IN Cell 6000 confocal microscope (GE Healthcare Life Sciences). The image analysis was performed with IN Cell 6000 analysis software.
Prior to experimentation, media volume in wells containing neurons was equalized with liquid handling automation (Bravo) in order to ensure precise control of concentrations. All Aβ42 oligomers, anti-Aβ, small molecules, inflammatory cytokines were prepared at 10× concentration and added to Neuronal Culture Media at an appropriate volume. For the repeated dosing experiments, the media were refreshed 50% at each dosing first, before adding Aβ42 oligomers, and/or anti-Aβ antibody at the specified final concentration.
(§2) In double (neuron, astrocyte) and triple (neuron, astrocyte, microglia) cultures, each small molecule listed in Table 1 was tested in the AD model paradigm at up to four concentrations. Molecules that characterized ≥30% rescue in any of the four measurements of dendrites area (MAP2), synapses count (synapsin 1/2), or cell count (CUX2), or axon area (Beta III Tubulin; “BT3”)) were classified as hits (FIGS. 11A-11D, Table 2, and Table 3).

[2] = tested on: human iPSC neurons, astrocytes and microglia treated with 5 μM sAβ42s; test: Focused small molecule screen, triple culture (neuron, astrocyte, microglia), rescue from sAβ42s toxicity; type: cell-based; settings: for percent rescue from sAβ42s toxicity at 0.78 µM / percent rescue from sAβ42s toxicity at 3.13 µM / percent rescue from sAβ42s toxicity at 12.5 µM / percent rescue from sAβ42s toxicity at 50 µM: Homo sapiens, iPSC
Description: as §1
Frozen cells were thawed and immediately seeded at a density of 8,000 cells/well of a 384-well plate onto 8-week old neuron-astrocyte co-culture in Microglia media (BrainPhys™ neuronal media (Stem Cell Technologies) supplemented with 1× B27 with vitamin A, 1×N2 Plus Media Supplement (R&D Systems), 20 ng/mL BDNF, 20 ng/mL GDNF, 1 mM creatine, 200 nM L-ascorbic acid, 1 μg/mL mouse laminin, 0.5 mM GlutaMAX™ (Thermofisher), 0.5× penicillin-streptomycin, 1× normocin, 5 ng/mL TGF-β, 100 ng/mL human IL-34, 1.5 μg/mL cholesterol, 1 ng/mL gondoic acid, 100 ng/mL oleic acid, 460 μM thioglycerol, 1× insulin-transferrin-selenium, 25 ng/mL rhM-CSF, 5.4 μg/mL human insulin solution).
as §2

[3] = 0.78 μM compound, read-out: % B3T rescue
[4] = 0.78 μM compound, read-out: % MAP2 rescue
[5] = 0.78 μM compound, read-out: % Synapse rescue
[6] = 3.13 μM compound, read-out: % B3T rescue
[7] = 3.13 μM compound, read-out: % MAP2 rescue
[8] = 3.13 μM compound, read-out: % Synapse rescue
[9] = 12.50 μM compound, read-out: % B3T rescue
[10] = 12.50 μM compound, read-out: % MAP2 rescue
[11] = 12.50 μM compound, read-out: % Synapse rescue
[12] = 50.00 μM compound, read-out: % B3T rescue
[13] = 50.00 μM compound, read-out: % MAP2 rescue
[14] = 50.00 μM compound, read-out: % Synapse rescue

Compound: O=c1cc(-c2ccccc2)oc2c(O)c(O)ccc12 [7,8-Dihydroxyflavone]
- percent rescue from sAβ42s toxicity at 50 µM ([1]; read-out: % B3T rescue): -14%
- percent rescue from sAβ42s toxicity at 50 µM ([1]; read-out: % Cux2 rescue): 42%
- percent rescue from sAβ42s toxicity at 50 µM ([1]; read-out: % MAP2 rescue): 6%
- percent rescue from sAβ42s toxicity at 50 µM ([1]; read-out: % Synapse rescue): -2%

Compound: OC(CNc1ccccc1)Cn1c2ccc(Br)cc2c2cc(Br)ccc21 (stereo not shown) [P7C3]
- % B3T rescue ([2]; 3.13 μM compound): 30%
- % MAP2 rescue ([2]; 3.13 μM compound): 2%
- % Synapse rescue ([2]; 3.13 μM compound): 3%
- % B3T rescue ([2]; 50.00 μM compound): 43%
- % MAP2 rescue ([2]; 50.00 μM compound): −8%
- % Synapse rescue ([2]; 50.00 μM compound): 2%

Compound: O=C(NOC[C@H](O)CO)c1ccc(F)c(F)c1Nc1ccc(I)cc1F [PD0325901]
- percent rescue from sAβ42s toxicity at 0.78 µM [2, 3]: 48%
- percent rescue from sAβ42s toxicity at 0.78 µM [2, 4]: 19%
- percent rescue from sAβ42s toxicity at 0.78 µM [2, 5]: 15%
- percent rescue from sAβ42s toxicity at 3.13 µM [2, 6]: 52%
- percent rescue from sAβ42s toxicity at 3.13 µM [2, 7]: 23%
- percent rescue from sAβ42s toxicity at 3.13 µM [2, 8]: 21%
- percent rescue from sAβ42s toxicity at 12.5 µM [2, 9]: 43%
- percent rescue from sAβ42s toxicity at 12.5 µM [2, 10]: 8%
- percent rescue from sAβ42s toxicity at 12.5 µM [2, 11]: 8%
- percent rescue from sAβ42s toxicity at 50 µM [2, 12]: 59%
- percent rescue from sAβ42s toxicity at 50 µM [2, 13]: 27%
- percent rescue from sAβ42s toxicity at 50 µM [2, 14]: 27%

Compound: CC(C)[C@H](CO)Nc1nc(Nc2cccc(Cl)c2)c2ncn(C(C)C)c2n1 [Purvalanol A]
- % B3T rescue ([2]; 3.13 μM compound): 33%
- % MAP2 rescue ([2]; 3.13 μM compound): 15%
- % Synapse rescue ([2]; 3.13 μM compound): 24%

Compound: Oc1ccc(C=Cc2cc(O)cc(O)c2)cc1 [Resveratrol]
- percent rescue from sAβ42s toxicity at 0.78 µM [2, 3]: 27%
- percent rescue from sAβ42s toxicity at 0.78 µM [2, 4]: 33%
- percent rescue from sAβ42s toxicity at 0.78 µM [2, 5]: 24%
- percent rescue from sAβ42s toxicity at 3.13 µM [2, 6]: 30%
- percent rescue from sAβ42s toxicity at 3.13 µM [2, 7]: 33%
- percent rescue from sAβ42s toxicity at 3.13 µM [2, 8]: 27%
- percent rescue from sAβ42s toxicity at 12.5 µM [2, 9]: 54%
- percent rescue from sAβ42s toxicity at 12.5 µM [2, 10]: 57%
- percent rescue from sAβ42s toxicity at 12.5 µM [2, 11]: 49%
- percent rescue from sAβ42s toxicity at 50 µM [2, 12]: 78%
- percent rescue from sAβ42s toxicity at 50 µM [2, 13]: 84%
- percent rescue from sAβ42s toxicity at 50 µM [2, 14]: 78%

Compound: Cn1cc(C2=C(c3ccc(Cl)cc3Cl)C(=O)NC2=O)c2ccccc21 [SB216763]
- % B3T rescue ([2]; 50.00 μM compound): 46%
- % MAP2 rescue ([2]; 50.00 μM compound): −24%
- % Synapse rescue ([2]; 50.00 μM compound): −15%

Compound: CCCCCCCCCCCCCCCCCC(=O)NCCc1ccc(O)c(O)c1 [STEARDA]
- % B3T rescue ([2]; 0.78 μM compound): 27%
- % MAP2 rescue ([2]; 0.78 μM compound): 30%
- % Synapse rescue ([2]; 0.78 μM compound): 24%
- % B3T rescue ([2]; 3.13 μM compound): 33%
- % MAP2 rescue ([2]; 3.13 μM compound): 28%
- % Synapse rescue ([2]; 3.13 μM compound): 24%
- % B3T rescue ([2]; 12.50 μM compound): 33%
- % MAP2 rescue ([2]; 12.50 μM compound): 24%
- % Synapse rescue ([2]; 12.50 μM compound): 21%

Compound: Cc1[nH]c(/C=C2\C(=O)Nc3ccccc32)c(C)c1CCC(=O)O [SU 6668]
- % B3T rescue ([2]; 3.13 μM compound): 34%
- % MAP2 rescue ([2]; 3.13 μM compound): 31%
- % Synapse rescue ([2]; 3.13 μM compound): 26%
- % B3T rescue ([2]; 50.00 μM compound): 77%
- % MAP2 rescue ([2]; 50.00 μM compound): 80%
- % Synapse rescue ([2]; 50.00 μM compound): 75%

Compound: Cn1sc(=O)n(Cc2ccccc2)c1=O [TDZD-8]
- % B3T rescue ([2]; 50.00 μM compound): 54%
- % MAP2 rescue ([2]; 50.00 μM compound): −29%
- % Synapse rescue ([2]; 50.00 μM compound): −8%

Compound: CC(C)CCC[C@@H](C)[C@H]1CC[C@H]2[C@@H]3CCC4=CC(=NO)CC[C@]4(C)[C@H]3CC[C@]12C [TRO 19622]
- percent rescue from sAβ42s toxicity at 3.13 µM [2, 6]: 34%
- percent rescue from sAβ42s toxicity at 3.13 µM [2, 7]: -25%
- percent rescue from sAβ42s toxicity at 3.13 µM [2, 8]: -10%
- percent rescue from sAβ42s toxicity at 12.5 µM [2, 9]: 33%
- percent rescue from sAβ42s toxicity at 12.5 µM [2, 10]: -36%
- percent rescue from sAβ42s toxicity at 12.5 µM [2, 11]: -13%

Compound: COc1cc([C@@H]2c3cc4c(cc3[C@@H](O[C@@H]3O[C@@H]5CO[C@@H](c6cccs6)O[C@H]5[C@H](O)[C@H]3O)[C@H]3COC(=O)[C@H]23)OCO4)cc(OC)c1O [Teniposide]
- percent rescue from sAβ42s toxicity at 0.78 µM [2, 3]: 35%
- percent rescue from sAβ42s toxicity at 0.78 µM [2, 4]: -7%
- percent rescue from sAβ42s toxicity at 0.78 µM [2, 5]: 1%
- percent rescue from sAβ42s toxicity at 3.13 µM [2, 6]: 42%
- percent rescue from sAβ42s toxicity at 3.13 µM [2, 7]: -10%
- percent rescue from sAβ42s toxicity at 3.13 µM [2, 8]: 5%
- percent rescue from sAβ42s toxicity at 12.5 µM [2, 9]: 50%
- percent rescue from sAβ42s toxicity at 12.5 µM [2, 10]: -17%
- percent rescue from sAβ42s toxicity at 12.5 µM [2, 11]: 3%
- percent rescue from sAβ42s toxicity at 50 µM [2, 12]: 52%
- percent rescue from sAβ42s toxicity at 50 µM [2, 13]: -19%
- percent rescue from sAβ42s toxicity at 50 µM [2, 14]: 3%

Compound: CC(/C=C/C(=O)NO)=C\[C@@H](C)C(=O)c1ccc(N(C)C)cc1 [Trichostatin A]
- % B3T rescue ([2]; 12.50 μM compound): 31%
- % MAP2 rescue ([2]; 12.50 μM compound): −18%
- % Synapse rescue ([2]; 12.50 μM compound): 2%
- % B3T rescue ([2]; 50.00 μM compound): 41%
- % MAP2 rescue ([2]; 50.00 μM compound): −13%
- % Synapse rescue ([2]; 50.00 μM compound): 1%

Compound: Cc1c(C)c(NCC(=O)N(C)C2CCN(Cc3ccc(C(N)=O)cc3)CC2)c(C)c(C)c1N [sun11602]
- % B3T rescue ([2]; 3.13 μM compound): 33%
- % MAP2 rescue ([2]; 3.13 μM compound): 10%
- % Synapse rescue ([2]; 3.13 μM compound): 11%
- % B3T rescue ([2]; 12.50 μM compound): 43%
- % MAP2 rescue ([2]; 12.50 μM compound): 19%
- % Synapse rescue ([2]; 12.50 μM compound): 15%
- % B3T rescue ([2]; 50.00 μM compound): 47%
- % MAP2 rescue ([2]; 50.00 μM compound): 14%
- % Synapse rescue ([2]; 50.00 μM compound): 11%

Compound: Lycorine hydrochloride
- % B3T rescue ([2]; 0.78 μM compound): 37%
- % MAP2 rescue ([2]; 0.78 μM compound): 57%
- % Synapse rescue ([2]; 0.78 μM compound): 43%
- % B3T rescue ([2]; 3.13 μM compound): 77%
- % MAP2 rescue ([2]; 3.13 μM compound): 99%
- % Synapse rescue ([2]; 3.13 μM compound): 80%
- % B3T rescue ([2]; 12.50 μM compound): 83%
- % MAP2 rescue ([2]; 12.50 μM compound): 93%
- % Synapse rescue ([2]; 12.50 μM compound): 77%
- % B3T rescue ([2]; 50.00 μM compound): 79%
- % MAP2 rescue ([2]; 50.00 μM compound): 88%
- % Synapse rescue ([2]; 50.00 μM compound): 75%
